Assay results as given in patent publication US20220412989A1, “COMPOSITIONS AND METHODS FOR DETECTING CELLS UNDERGOING FERROPTOSIS USING AN ANTIBODY” (THE TRUSTEES OF COLUMBIA UNIVERSITY IN THE CITY OF NEW YORK, priority 2020, published 2022).

Tests used:
Type in all cases: cell-based, human
[1] = test system: HT-1080 cells; assay: Nucleus area by immunofluorescence (DAPI, CellProfiler)
Description: HT-1080 (ATCC Cat #CRL-7951, RRID:CVCL_0317), A-673, SK-BR-3, SK-LMS-1 and Huh-7 cells were treated with 1 μM RSL3 for 4 h, 15 μM erastin for 8 h, 10 μM IKE for 8 h, 15 μM FINO2 for 8 h, 10 μM FIN56 for 8 h, 100 μM tBuOOH for 8 h, 1 μM staurosporine (STS) for 6 h, 2 μM camptothecin (CPT) for 24 h, 1 μM RSL3+5 μM Fer-1 for 4 h and 10 μM IKE+5 μM Fer-1 for 8 h on poly-lysine-coated cover slips (Sigma Aldrich P4832) in 24-well plate. Media were taken out and the cells were gently washed with PBS^++ (PBS with 1 mM CaCl2) and 0.5 mM MgCl2) twice. The cells were fixed and permeabilized by adding 200 μL/well of 4% paraformaldehyde (PFA) in PBS with 0.1% Triton X-100 (PBT), and incubated at room temperature for 18 min. The cells were then washed with PBT three times. Then the cells were blocked with 5% goat serum (ThermoFisher 50197Z) in PBT for 1 h at room temperature. The cells were incubated with purified mouse monoclonal antibodies (1:5 dilution), mouse mAb 3F3 FMA (1:500 dilution), Transferrin Receptor/CD71 Monoclonal Antibody, Clone: H68.4, Invitrogen (Thermo Fisher Scientific Cat #13-6800, RRID:AB_2533029, 1:250 dilution), Cd71 (D7G9X) XP® Rabbit mAb (Cell Signaling Technology Cat #13113, RRID:AB_2715594, 1:100 dilution), CD71 (3B8 2A1) (Santa Cruz Biotechnology Cat #sc-32272, RRID:AB_627167, 1:50 dilution), Tom20 (FL-145) (Santa Cruz Biotechnology Cat #sc-11415, RRID:AB_2207533, 1:250 dilution), PDI antibody [RL90]—ER Marker (Abcam Cat #ab2792, RRID:AB_303304, 1:100 dilution), Gm130 (D6B1) XP® Rabbit mAb (Cell Signaling Technology Cat #12480, RRID:AB_2797933, 1:3200 dilution), Anti-Malondialdehyde antibody (Abcam Cat #ab6463, RRID:AB_305484, 1:400 dilution), Anti-4 Hydroxynonenal antibody (Abcam Cat #ab46544, RRID:AB_722493, 1:50 dilution), ACSL4 Antibody (F-4) (Santa Cruz Biotechnology Cat #sc-365230, RRID:AB_10843105, 1:50 dilution), mouse mAb 1F83 (1:100 dilution), which specifically recognizes the malondialdehyde (MDA)-lysine adduct 4-methyl-1,4-dihydropyridine-3,5-dicarbaldehyde (MDHDC) (Yamada et al., 2001), in PBT with 1% BSA and 5% goat serum overnight at 4° C. The cells were washed with PBT for 5 min three times. The cells were incubated with Goat anti-Mouse IgG (H+L) Highly Cross-Adsorbed Secondary Antibody, Alexa Fluor 594 (Thermo Fisher Scientific Cat #A-11032, RRID:AB_2534091, 1:200 dilution) or Goat anti-Rabbit IgG (H+L) Highly Cross-Adsorbed Secondary Antibody, Alexa Fluor 488 (Thermo Fisher Scientific Cat #A-11034, RRID:AB_2576217, 1:200 dilution) at room temperature for 1 h. The cells were washed with PBT for 5 min three times. ProLong Diamond antifade mountant with DAPI (ThermoFisher P36962) was added to stain the nucleus. All images were captured on a Zeiss LSM 800 confocal microscope at Plan-Apochromat 63x/1.40 Oil DIC objective with constant laser intensity for all samples. When applicable, line-scan analysis was performed on representative confocal microscopy images using Zeiss LSM software to qualitatively visualize fluorescence overlap.
The quantification of the intensity of antibodies was analyzed using CellProfiler 3.1.8 (Carpenter et al., 2006) (CellProfiler Image Analysis Software, RRID:SCR_007358). Nuclei were firstly identified as primary objects using global minimum cross entropy strategy. […] Then mean intensities and size areas of nuclei, cytoplasm and plasma membranes were then measured and reported. […]

[2] = test system: HT-1080 cells; assay: Nucleus area by high-content analysis
Description: For the screening with five technical replicates, HT-1080 cells were washed with PBS, trypsinized and resuspended in cell culture medium. The cell suspension (2,000 cells in 50 μl per well) was dispensed into collagen (Sigma-Aldrich, St. Louis, Mass., USA) pre-coated 384-well plates (PerkinElmer 384-well CellCarrierUltra™). 24 h after seeding, medium was exchanged to medium containing 0.3 μM RSL3 (1 mM stock solution) dissolved in 100% dimethyl sulfoxide (DMSO) or DMSO alone. 50 μl medium with 0.3 μM RSL3/DMSO was added per well. The cells were then incubated (37° C.; 5% CO2) for 2.5 h prior to fixation and antibody staining. […] Finally, plates were recorded using the automated Operetta® microscope with the 20× high NA objective for high-resolution images (PerkinElmer, USA). For quantification, three images of each condition were recorded using three channels (Hoechst, Alexa488, TRITC). […] Quantification on cell number, cytoplasmic intensity, nucleus intensity and spot number per cell was performed using the Columbus Software (PerkinElmer, USA).
Multiparametric image analysis was performed using Columbus Software 2.8.0 (PerkinElmer). […] In a next step we have calculated the morphology and Alexa488 fluorescence intensity in each cell region (nucleus and cytoplasm). […] Each spot was detected as a small region within the corresponding image by having a higher intensity than its surrounding area. […]

[3] = test system: HT-1080 cells; assay: Cell death after RSL3 incubation; details: 1 μM RSL3, 4 h incubation

CC1(CCO)CC2(CCC(C(C)(C)C)CC2)OO1 (centres unmarked) [FINO2, ferroptosis inducer endoperoxide]
nuclei shrank by (mean nucleus area) ([1]; 15 μM FINO2, 8 h incubation): 49%

CC(C)Oc1ccc(C(=O)Cn2ccnc2)cc1-n1c(CN2CCN(C(=O)COc3ccc(Cl)cc3)CC2)nc2ccccc2c1=O [IKE, imidazole ketone erastin]
nuclei shrank by (mean nucleus area) ([1]; 10 μM IKE, 8 h incubation): 12%

O=S(=O)(NC1CCCCC1)c1ccc2c(c1)C(=NO)c1cc(S(=O)(=O)NC3CCCCC3)ccc1-2 [FIN56, ferroptosis inducer 56]
nuclei shrank by (mean nucleus area) ([1]; 10 μM FIN56, 8 h incubation): 17%

COC(=O)c1ccc([C@@H]2c3[nH]c4ccccc4c3C[C@@H](C(=O)OC)N2C(=O)CCl)cc1 [RSL3, (1S, 3R)-RSL3]
nuclei shrank by (mean nucleus area) ([1]; 1 μM RSL3, 4 h incubation): 27%
decrease of average nucleus area vs DMSO group ([2]; RSL3-treated plates 4-6): 17%
average nucleus area ([2]; RSL3-treated plates 4-6 (DMSO group 240 μm^2)): 200 μm^2
HT-1080 cells died [3]: 30%

CCOc1ccccc1-n1c(C(C)N2CCN(C(=O)COc3ccc(Cl)cc3)CC2)nc2ccccc2c1=O (centres unmarked) [erastin]
nuclei shrank by (mean nucleus area) ([1]; 15 μM erastin, 8 h incubation): 21%
